# Key:
# Settings in all cases: compound at 10 μM
# Human δ-opioid (DOP) = molecular target: T1, Human δ-opioid (DOP) (Homo sapiens, UniProt P41143); assay: Radioligand binding, human δ-opioid (DOP) membranes, FlashPlate, [3H]-Bremazocine
# T1 construct: purchased Perkin Elmer Biosignal
# Outline: (§1)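 Cloned human receptor membranes were coated onto FlashPlate wells and incubated with radioligand and compound (added from a 0.5 mM DMSO daughter plate) for 1 hour at room temperature in the dark. Scintillation counting gave percent inhibition, with DMSO defining total and reference ligand defining non-specific binding.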
# Human κ-Opioid (KOP) = molecular target: T2, Human κ-Opioid (KOP) (Homo sapiens, UniProt P41145); assay: Radioligand binding, human κ-opioid (KOP) membranes, filtration, [3H]-Diprenorphine
# T2 construct: purchased Perkin Elmer Biosignal
# Outline: (§2)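 Filtration binding on cloned human receptor membranes (1 Unit/well), [125I]-Substance P for NK1 and [3H]-Diprenorphine for KOP, 1 h at room temperature. Filters PEI-presoaked, washed with cold 50 mM Tris-HCl pH 7.4, counted by scintillation; percent inhibition calculated, reference ligand defining non-specific binding.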
# Human Melanocortin (MC3) = molecular target: T3, Human Melanocortin (MC3) (Homo sapiens, UniProt P41968); assay: Radioligand binding, human melanocortin MC3 membranes, FlashPlate, [125I]-NDP-αMSH
# T3 construct: purchased Perkin Elmer Biosignal
# Outline: as §1
# Human Melanocortin (MC4) = molecular target: T4, Human Melanocortin (MC4) (Homo sapiens, UniProt P32245); assay: Radioligand binding, human melanocortin MC4 membranes, FlashPlate, [125I]-NDP-αMSH
# T4 construct: purchased Perkin Elmer Biosignal
# Outline: as §1
# Human melanocortin (MC5) = molecular target: T5, Human melanocortin (MC5) (Homo sapiens, UniProt P33032); assay: Radioligand binding, human melanocortin MC5 membranes, FlashPlate, [125I]-NDP-αMSH
# T5 construct: purchased Perkin Elmer Biosignal
# Outline: as §1
# [1] = molecular target: T6, Human melanin-concentrating hormone (MCH1) (Homo sapiens, UniProt Q99705); assay: Radioligand binding, human melanin-concentrating hormone MCH1 membranes, FlashPlate, [125I]-S36057
# T6 construct: purchased Perkin Elmer Biosignal
# Outline: as §1
# Human μ-opioid (MOP) = molecular target: T7, Human μ-opioid (MOP) (Homo sapiens, UniProt P35372); assay: Radioligand binding, human μ-opioid (MOP) membranes, FlashPlate, [3H]-Naloxone
# T7 construct: purchased Perkin Elmer Biosignal
# Outline: as §1
# Human neurokinin (NK1) = molecular target: T8, Human neurokinin (NK1) (Homo sapiens, UniProt P25103); assay: Radioligand binding, human neurokinin NK1 membranes, filtration, [125I]-Substance P
# T8 construct: purchased Perkin Elmer Biosignal
# Outline: as §2
# [2] = molecular target: T9, Human neuropeptide Y (NPY-Y1) (Homo sapiens, UniProt P25929); assay: Radioligand binding, human neuropeptide Y NPY-Y1 membranes, FlashPlate, [125I]-PYY
# T9 construct: purchased Perkin Elmer Biosignal
# T9 sequence (P25929 1-384): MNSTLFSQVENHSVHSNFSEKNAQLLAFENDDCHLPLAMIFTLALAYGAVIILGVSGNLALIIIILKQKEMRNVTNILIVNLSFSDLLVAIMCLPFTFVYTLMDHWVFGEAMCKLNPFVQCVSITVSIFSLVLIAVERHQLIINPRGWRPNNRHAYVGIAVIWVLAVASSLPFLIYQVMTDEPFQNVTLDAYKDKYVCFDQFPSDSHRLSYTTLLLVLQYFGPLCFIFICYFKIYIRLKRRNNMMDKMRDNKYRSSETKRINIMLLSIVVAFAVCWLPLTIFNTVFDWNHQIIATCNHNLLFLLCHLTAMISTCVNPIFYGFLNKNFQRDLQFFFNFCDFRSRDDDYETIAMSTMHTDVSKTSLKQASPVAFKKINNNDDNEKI
# Outline: as §1
# Human opioid (ORL1) = molecular target: T10, Human opioid (ORL1) (Homo sapiens, UniProt P41146); assay: Radioligand binding, human opioid ORL1 membranes, FlashPlate, [125I]-Nociceptin
# T10 construct: purchased Perkin Elmer Biosignal
# Outline: as §1
# Mouse urotensin (mUR2) = molecular target: T11, Mouse urotensin (mUR2) (Mus musculus, UniProt Q8VIH9); assay: Radioligand binding, mouse urotensin mUR2 membranes, FlashPlate, [125I]-Urotensin II
# T11 construct: purchased Perkin Elmer Biosignal
# T11 sequence (Q8VIH9 1-385): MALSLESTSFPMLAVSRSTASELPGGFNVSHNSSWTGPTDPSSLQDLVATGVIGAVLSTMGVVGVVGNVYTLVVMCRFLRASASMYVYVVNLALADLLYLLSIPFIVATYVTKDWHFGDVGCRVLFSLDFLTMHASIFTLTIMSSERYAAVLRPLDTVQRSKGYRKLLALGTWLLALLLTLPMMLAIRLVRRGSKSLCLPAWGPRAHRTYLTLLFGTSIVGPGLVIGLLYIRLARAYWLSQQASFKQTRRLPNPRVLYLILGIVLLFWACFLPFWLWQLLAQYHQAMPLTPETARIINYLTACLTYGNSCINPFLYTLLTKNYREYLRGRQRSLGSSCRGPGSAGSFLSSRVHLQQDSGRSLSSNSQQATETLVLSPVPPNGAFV
# Outline: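 Cloned mouse urotensin (mUR2) receptor membranes from Perkin Elmer Biosignal were immobilized in FlashPlate microplates using a proprietary coating. Each well got 19.5 μl buffer, then 0.5 μl of DMSO, reference ligand, or compound. Adding 5 μl of [125I]-Urotensin II, diluted to 5× final concentration in binding buffer, started binding. Plates were sealed with TopSeal-A and incubated 1 hour at room temperature in the dark. Wells were counted for 30 seconds each on a TopCount after a 60-second delay, and percentage inhibition was calculated.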
# T4 sequence (P32245 whole entry): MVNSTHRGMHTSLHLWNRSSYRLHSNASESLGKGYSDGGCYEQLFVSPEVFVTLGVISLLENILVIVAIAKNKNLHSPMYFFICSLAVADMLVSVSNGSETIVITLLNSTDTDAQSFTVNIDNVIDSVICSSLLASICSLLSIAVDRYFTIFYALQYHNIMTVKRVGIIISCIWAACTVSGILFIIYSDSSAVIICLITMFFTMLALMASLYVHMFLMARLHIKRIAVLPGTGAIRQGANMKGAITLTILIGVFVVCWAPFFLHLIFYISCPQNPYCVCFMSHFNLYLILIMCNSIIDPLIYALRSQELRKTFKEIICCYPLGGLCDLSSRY
# T8 sequence (P25103 whole entry): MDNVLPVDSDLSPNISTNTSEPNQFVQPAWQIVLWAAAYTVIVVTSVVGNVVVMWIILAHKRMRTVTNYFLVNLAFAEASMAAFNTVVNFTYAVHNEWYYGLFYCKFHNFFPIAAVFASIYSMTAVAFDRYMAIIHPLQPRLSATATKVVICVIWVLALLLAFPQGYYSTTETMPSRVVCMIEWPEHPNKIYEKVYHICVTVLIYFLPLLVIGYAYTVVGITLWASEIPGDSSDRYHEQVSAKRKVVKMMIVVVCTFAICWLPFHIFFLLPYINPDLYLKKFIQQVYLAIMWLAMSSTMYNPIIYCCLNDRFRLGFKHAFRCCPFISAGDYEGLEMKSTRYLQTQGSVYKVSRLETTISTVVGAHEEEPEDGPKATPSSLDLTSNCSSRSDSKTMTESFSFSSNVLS
# T1 sequence (P41143 whole entry): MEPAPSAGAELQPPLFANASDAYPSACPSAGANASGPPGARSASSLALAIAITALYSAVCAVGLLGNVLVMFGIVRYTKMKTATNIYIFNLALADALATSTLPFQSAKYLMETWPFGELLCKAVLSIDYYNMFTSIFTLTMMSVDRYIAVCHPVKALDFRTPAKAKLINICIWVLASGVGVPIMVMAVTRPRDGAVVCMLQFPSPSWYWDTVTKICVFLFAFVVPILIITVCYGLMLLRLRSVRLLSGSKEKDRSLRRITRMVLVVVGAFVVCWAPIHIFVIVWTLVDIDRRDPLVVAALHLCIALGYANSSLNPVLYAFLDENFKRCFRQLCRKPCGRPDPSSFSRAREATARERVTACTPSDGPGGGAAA
# T2 sequence (P41145 whole entry): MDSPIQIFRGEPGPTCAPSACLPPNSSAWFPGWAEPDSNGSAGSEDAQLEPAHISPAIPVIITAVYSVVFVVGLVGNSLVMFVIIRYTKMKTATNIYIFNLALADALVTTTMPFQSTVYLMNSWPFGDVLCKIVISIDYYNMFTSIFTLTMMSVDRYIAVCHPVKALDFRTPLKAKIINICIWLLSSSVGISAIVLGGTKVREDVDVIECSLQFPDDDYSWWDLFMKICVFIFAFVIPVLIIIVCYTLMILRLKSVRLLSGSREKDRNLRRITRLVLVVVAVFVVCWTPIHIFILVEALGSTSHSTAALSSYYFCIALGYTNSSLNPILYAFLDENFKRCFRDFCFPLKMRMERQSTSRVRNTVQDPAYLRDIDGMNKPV
# T3 sequence (P41968 whole entry): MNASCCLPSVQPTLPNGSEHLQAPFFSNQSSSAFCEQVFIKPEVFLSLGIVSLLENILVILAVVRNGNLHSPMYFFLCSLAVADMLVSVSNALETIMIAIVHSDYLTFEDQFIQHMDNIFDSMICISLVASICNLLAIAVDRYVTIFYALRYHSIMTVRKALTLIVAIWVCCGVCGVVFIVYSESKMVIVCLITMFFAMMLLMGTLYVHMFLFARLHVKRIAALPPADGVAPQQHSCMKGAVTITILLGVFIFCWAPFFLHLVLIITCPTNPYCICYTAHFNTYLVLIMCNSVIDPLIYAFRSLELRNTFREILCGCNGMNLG
# T10 sequence (P41146 whole entry): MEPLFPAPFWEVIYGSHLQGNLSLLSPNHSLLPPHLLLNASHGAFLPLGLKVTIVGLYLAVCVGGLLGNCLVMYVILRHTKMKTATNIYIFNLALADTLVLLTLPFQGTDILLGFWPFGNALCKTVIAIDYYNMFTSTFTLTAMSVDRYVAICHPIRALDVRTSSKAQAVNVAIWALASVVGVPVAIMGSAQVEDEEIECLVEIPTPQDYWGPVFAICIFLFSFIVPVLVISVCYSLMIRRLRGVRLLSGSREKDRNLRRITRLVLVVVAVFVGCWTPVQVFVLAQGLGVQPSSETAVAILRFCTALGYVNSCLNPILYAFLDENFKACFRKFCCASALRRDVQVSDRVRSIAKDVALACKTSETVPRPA
# T5 sequence (P33032 whole entry): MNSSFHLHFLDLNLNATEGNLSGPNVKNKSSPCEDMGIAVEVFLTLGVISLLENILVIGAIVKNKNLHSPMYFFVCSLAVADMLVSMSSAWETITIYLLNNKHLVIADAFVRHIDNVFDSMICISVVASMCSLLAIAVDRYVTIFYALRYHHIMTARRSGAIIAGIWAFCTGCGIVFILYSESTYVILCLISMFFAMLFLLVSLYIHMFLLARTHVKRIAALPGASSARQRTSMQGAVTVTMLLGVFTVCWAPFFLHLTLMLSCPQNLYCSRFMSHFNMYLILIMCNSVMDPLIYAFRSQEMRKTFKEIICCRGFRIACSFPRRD
# T7 sequence (P35372 whole entry): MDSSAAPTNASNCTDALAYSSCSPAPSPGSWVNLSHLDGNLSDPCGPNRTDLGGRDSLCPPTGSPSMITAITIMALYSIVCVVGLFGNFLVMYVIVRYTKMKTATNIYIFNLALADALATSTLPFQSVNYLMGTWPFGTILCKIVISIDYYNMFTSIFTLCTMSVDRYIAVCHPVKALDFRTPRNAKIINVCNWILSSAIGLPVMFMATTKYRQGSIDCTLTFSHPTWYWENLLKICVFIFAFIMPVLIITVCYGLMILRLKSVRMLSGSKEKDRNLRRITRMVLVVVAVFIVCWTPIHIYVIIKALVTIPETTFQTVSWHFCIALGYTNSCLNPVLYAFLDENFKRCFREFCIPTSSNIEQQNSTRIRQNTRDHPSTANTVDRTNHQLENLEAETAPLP
# T6 sequence (Q99705 whole entry): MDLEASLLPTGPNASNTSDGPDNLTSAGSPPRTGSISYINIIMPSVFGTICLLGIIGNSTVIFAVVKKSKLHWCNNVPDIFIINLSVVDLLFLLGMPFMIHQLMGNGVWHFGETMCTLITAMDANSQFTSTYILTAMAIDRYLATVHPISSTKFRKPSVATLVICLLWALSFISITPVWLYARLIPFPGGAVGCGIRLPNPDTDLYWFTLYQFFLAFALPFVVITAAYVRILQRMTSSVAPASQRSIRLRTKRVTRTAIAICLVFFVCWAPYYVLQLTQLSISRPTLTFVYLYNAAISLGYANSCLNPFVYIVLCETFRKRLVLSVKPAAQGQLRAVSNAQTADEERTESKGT
structure (smiles),measurement,setting,value
[N-]=[N+]=N[C@H]1C(OCCNC(=N)N)O[C@H](COCc2ccccc2)[C@@H](O)[C@@H]1OCc1ccc2ccccc2c1 (stereo partly shown) [compound 127],"A1 radioligand binding, percentage inhibition",Human δ-opioid (DOP); [3H]-Bremazocine,− (“−” indicates less than 50% inhibition at 10 μM)
same,"A2 radioligand binding, percentage inhibition",Human κ-Opioid (KOP); [3H]-Diprenorphine,− (“−” indicates less than 50% inhibition at 10 μM)
same,"A3 radioligand binding, percentage inhibition",Human Melanocortin (MC3); [125I]-NDP-αMSH,− (“−” indicates less than 50% inhibition at 10 μM)
same,"A4 radioligand binding, percentage inhibition",Human Melanocortin (MC4); [125I]-NDP-αMSH,+ (“+” indicates greater than 50% inhibition at 10 μM)
same,"A5 radioligand binding, percentage inhibition",Human melanocortin (MC5); [125I]-NDP-αMSH,+ (“+” indicates greater than 50% inhibition at 10 μM)
same,"A6 radioligand binding, percentage inhibition",[1]; [125I]-S36057,− (“−” indicates less than 50% inhibition at 10 μM)
same,"A7 radioligand binding, percentage inhibition",Human μ-opioid (MOP); [3H]-Naloxone,− (“−” indicates less than 50% inhibition at 10 μM)
same,"A8 radioligand binding, percentage inhibition",Human neurokinin (NK1); [125I]-Substance P,+ (“+” indicates greater than 50% inhibition at 10 μM)
same,"A9 radioligand binding, percentage inhibition",[2]; [125I]-PYY,− (“−” indicates less than 50% inhibition at 10 μM)
same,"A10 radioligand binding, percentage inhibition",Human opioid (ORL1); [125I]-Nociceptin,− (“−” indicates less than 50% inhibition at 10 μM)
same,"A11 radioligand binding, percentage inhibition",Mouse urotensin (mUR2); [125I]-Urotensin II,− (“−” indicates less than 50% inhibition at 10 μM)
COC[C@H]1OC(OCc2ccc(Cl)cc2)[C@H](NC(=O)CCNC(=N)N)[C@@H](OCc2ccccc2)[C@@H]1O (stereo partly shown) [compound 34],A1 radioligand binding inhibition,Human δ-opioid (DOP); human δ-opioid (DOP) membranes,− (“−” indicates less than 50% inhibition at 10 μM)
same,A2 radioligand binding inhibition,Human κ-Opioid (KOP); human κ-opioid (KOP) membranes,− (“−” indicates less than 50% inhibition at 10 μM)
same,A3 radioligand binding inhibition,Human Melanocortin (MC3); human melanocortin MC3 membranes,− (“−” indicates less than 50% inhibition at 10 μM)
same,A4 radioligand binding inhibition,Human Melanocortin (MC4); human melanocortin MC4 membranes,− (“−” indicates less than 50% inhibition at 10 μM)
same,A5 radioligand binding inhibition,Human melanocortin (MC5); human melanocortin MC5 membranes,− (“−” indicates less than 50% inhibition at 10 μM)
same,A6 radioligand binding inhibition,[1]; human MCH1 membranes,− (“−” indicates less than 50% inhibition at 10 μM)
same,A7 radioligand binding inhibition,Human μ-opioid (MOP); human μ-opioid (MOP) membranes,− (“−” indicates less than 50% inhibition at 10 μM)
same,A8 radioligand binding inhibition,Human neurokinin (NK1); human neurokinin NK1 membranes,+ (“+” indicates greater than 50% inhibition at 10 μM)
same,A9 radioligand binding inhibition,[2]; human NPY-Y1 membranes,− (“−” indicates less than 50% inhibition at 10 μM)
same,A10 radioligand binding inhibition,Human opioid (ORL1); human ORL1 membranes,− (“−” indicates less than 50% inhibition at 10 μM)
same,A11 radioligand binding inhibition,Mouse urotensin (mUR2); mouse urotensin mUR2 membranes,− (“−” indicates less than 50% inhibition at 10 μM)
CSC1OC(COCc2ccc(Cl)cc2)C(O)C(OCc2ccc(Cl)cc2)C1NC(=O)CNC(=N)N (stereo not shown) [compound 270],A1: inhibition of radioligand binding,"Human δ-opioid (DOP); [3H]-Bremazocine, FlashPlate",− (“−” indicates less than 50% inhibition at 10 μM)
same,A2: inhibition of radioligand binding,"Human κ-Opioid (KOP); [3H]-Diprenorphine, filtration",− (“−” indicates less than 50% inhibition at 10 μM)
same,A3: inhibition of radioligand binding,"Human Melanocortin (MC3); [125I]-NDP-αMSH, FlashPlate",+ (“+” indicates greater than 50% inhibition at 10 μM)
same,A4: inhibition of radioligand binding,"Human Melanocortin (MC4); [125I]-NDP-αMSH, FlashPlate",+ (“+” indicates greater than 50% inhibition at 10 μM)
same,A5: inhibition of radioligand binding,"Human melanocortin (MC5); [125I]-NDP-αMSH, FlashPlate",+ (“+” indicates greater than 50% inhibition at 10 μM)
same,A6: inhibition of radioligand binding,"[1]; [125I]-S36057, FlashPlate",− (“−” indicates less than 50% inhibition at 10 μM)
same,A7: inhibition of radioligand binding,"Human μ-opioid (MOP); [3H]-Naloxone, FlashPlate",− (“−” indicates less than 50% inhibition at 10 μM)
same,A8: inhibition of radioligand binding,"Human neurokinin (NK1); [125I]-Substance P, filtration",+ (“+” indicates greater than 50% inhibition at 10 μM)
same,A9: inhibition of radioligand binding,"[2]; [125I]-PYY, FlashPlate",− (“−” indicates less than 50% inhibition at 10 μM)
same,A10: inhibition of radioligand binding,"Human opioid (ORL1); [125I]-Nociceptin, FlashPlate",− (“−” indicates less than 50% inhibition at 10 μM)
same,A11: inhibition of radioligand binding,"Mouse urotensin (mUR2); [125I]-Urotensin II, FlashPlate",− (“−” indicates less than 50% inhibition at 10 μM)
N=C(N)NCC(=O)N[C@H]1C(OCc2ccc(Cl)cc2)O[C@H](COCc2ccc(Cl)cc2)[C@@H](O)[C@@H]1OCc1ccc(-c2ccccc2)cc1 (stereo partly shown) [compound 521],"A1: inhibition of radioligand binding, human δ-opioid (DOP)",Human δ-opioid (DOP); [3H]-Bremazocine,− (“−” indicates less than 50% inhibition at 10 μM)
same,"A2: inhibition of radioligand binding, human κ-opioid (KOP)",Human κ-Opioid (KOP); [3H]-Diprenorphine,− (“−” indicates less than 50% inhibition at 10 μM)
same,"A3: inhibition of radioligand binding, human melanocortin (MC3)",Human Melanocortin (MC3); [125I]-NDP-αMSH,+ (“+” indicates greater than 50% inhibition at 10 μM)
same,"A4: inhibition of radioligand binding, human melanocortin (MC4)",Human Melanocortin (MC4); [125I]-NDP-αMSH,+ (“+” indicates greater than 50% inhibition at 10 μM)
same,"A5: inhibition of radioligand binding, human melanocortin (MC5)",Human melanocortin (MC5); [125I]-NDP-αMSH,+ (“+” indicates greater than 50% inhibition at 10 μM)
same,"A6: inhibition of radioligand binding, human melanin-concentrating hormone (MCH1)",[1]; [125I]-S36057,+ (“+” indicates greater than 50% inhibition at 10 μM)
same,"A7: inhibition of radioligand binding, human μ-opioid (MOP)",Human μ-opioid (MOP); [3H]-Naloxone,− (“−” indicates less than 50% inhibition at 10 μM)
same,"A8: inhibition of radioligand binding, human neurokinin (NK1)",Human neurokinin (NK1); [125I]-Substance P,+ (“+” indicates greater than 50% inhibition at 10 μM)
same,"A9: inhibition of radioligand binding, human neuropeptide Y (NPY-Y1)",[2]; [125I]-PYY,− (“−” indicates less than 50% inhibition at 10 μM)
same,"A10: inhibition of radioligand binding, human opioid (ORL1)","Human opioid (ORL1); [125I]-Nociceptin, 10 µM",+ (“+” indicates greater than 50% inhibition at 10 μM)
same,"A11: inhibition of radioligand binding, mouse urotensin (mUR2)",Mouse urotensin (mUR2); [125I]-Urotensin II,− (“−” indicates less than 50% inhibition at 10 μM)
COCC1OC(OCc2ccccc2)C(NC(=O)CN)C(OCc2ccc(Cl)cc2)C1O (stereo not shown) [compound 176],"A1 radioligand binding, percentage inhibition",Human δ-opioid (DOP); [3H]-Bremazocine,− (“−” indicates less than 50% inhibition at 10 μM)
same,"A2 radioligand binding, percentage inhibition",Human κ-Opioid (KOP); [3H]-Diprenorphine,− (“−” indicates less than 50% inhibition at 10 μM)
same,"A3 radioligand binding, percentage inhibition",Human Melanocortin (MC3); [125I]-NDP-αMSH,− (“−” indicates less than 50% inhibition at 10 μM)
same,"A4 radioligand binding, percentage inhibition",Human Melanocortin (MC4); [125I]-NDP-αMSH,− (“−” indicates less than 50% inhibition at 10 μM)
same,"A5 radioligand binding, percentage inhibition",Human melanocortin (MC5); [125I]-NDP-αMSH,− (“−” indicates less than 50% inhibition at 10 μM)
same,"A6 radioligand binding, percentage inhibition",[1]; [125I]-S36057,− (“−” indicates less than 50% inhibition at 10 μM)
same,"A7 radioligand binding, percentage inhibition",Human μ-opioid (MOP); [3H]-Naloxone,− (“−” indicates less than 50% inhibition at 10 μM)
same,"A8 radioligand binding, percentage inhibition",Human neurokinin (NK1); [125I]-Substance P,+ (“+” indicates greater than 50% inhibition at 10 μM)
same,"A9 radioligand binding, percentage inhibition",[2]; [125I]-PYY,− (“−” indicates less than 50% inhibition at 10 μM)
same,"A10 radioligand binding, percentage inhibition",Human opioid (ORL1); [125I]-Nociceptin,− (“−” indicates less than 50% inhibition at 10 μM)
same,"A11 radioligand binding, percentage inhibition",Mouse urotensin (mUR2); [125I]-Urotensin II,− (“−” indicates less than 50% inhibition at 10 μM)

# — patent US20080009418A1, “Selective Inhibitors” (Alchemia LTD., priority 2004, published 2008)
